Measurements as given in patent US11028127B2, “Peptides capable of reactivating p53 mutants” (Yeda Research and Development Co. Ltd., priority 2013, dated 2021).
Where no end group is shown, it is not given here. The star is where a group is joined. Myristoyl = CCCCCCCCCCCCCC(=O)*

Columns and labels:
[1] = system: WI-38 fibroblasts overexpressing R175H p53 (WI38-175); assay: Crystal violet viability assay; type: cell-based; conditions: 48 hours; much more prominent than in mNoxa-i control cells
Method: FIGS. 13A and 13B are bar graphs illustrating the effect of various tested peptides on the viability of cells expressing Mut-p53, as determine by crystal violet assay. WI-38 fibroblasts expressing endogenous WT p53 were infected with retroviruses expressing either mouse Noxa shRNA (WI38-m-Noxa-i) as a nonspecific control or the R175H p53 mutant for stable overexpression of mutant p53 (WI38-175). The cells (WI38-m-Noxa-i or WI38-175) were seeded at 3000 cells per well in 96-well plates. Tested peptides were added to the cells. Different concentrations of etoposide (cytotoxic drug, 4′-Demethyl-epipodophyllotoxin 9-[4,6-O—(R)-ethylidene-beta-D-glucopyranoside], 4′-(dihydrogen phosphate) were used as positive control for cell death and as a standard reference curve to assess the effect of tested peptides. 48 hours after treatment, cells were washed with PBS to exclude dead cells and debris, and cells that remained attached to the plate were stained with crystal-violet for 30 minutes. Crystal violet was removed and cells were washed 4 times with PBS to remove residual crystal violet. Then, the stained cells were dissolved in 10% acetic acid and plates were taken for optical density measurement at 595 nM (optimal for crystal violet). The bar graphs of FIGS. 13A and 13B show the optical density reads at 595 nm, which reflect the number of cells in the plate after treatment, normalized to the non-treated (NT) samples.
Cells were cultured in 96 wells plates with 2500-4000 cells/well in 0.1 ml and incubated overnight at 37° C. in order to adhere to the plate. Serial dilutions of different peptides (0.5 μg/ml) were added in 0.1 ml aliquots and the plates incubated for additional 48 h at 37° C. Then medium was removed and cell lysis was determined by staining the cells with crystal violet (0.5%) in methanol/water (1:4, v/v), 50 μl each well, for 10 min, followed by 3 washes with PBS. Afterwards, 10% acetic acid (50 μl) was added to each well and shaken for 10 min. Then, automatic plate reading was performed at 595 nm.
An important indication for the reactivating peptides activity is their effect in-vivo on cancer cells that express Mut-p53. In particular, reactivating peptides that can cause specifically Mut-p53-dependent death of cancer cells, with minimal toxic effects on normal cells are desired. A crystal-violet based viability assay, in which crystal-violet is employed to stain cells that adhere to the plate and therefore the amount of dye is proportional to cell number was used to determine the effect of the various test peptides on Mut-p53-dependent death.
Cells were plated in 96-well plates, at calibrated density that allows them to grow for 48 hours without reaching confluence. Peptides are added 6 hours later. Different concentrations of etoposide (cytotoxic drug) were used as positive control for cell death and as a standard reference curve to assess the effect of tested peptides. 48 hours after treatment, cells were washed with PBS to exclude dead cells and debris, and cells that remained attached to the plate were stained with crystal-violet for 30 minutes. Crystal-violet was removed and cells were washed with PBS 4 times to eliminate remains of crystal-violet. Then, the stained cells were dissolved in 10% acetic acid and plates were taken for optical density measurement at 595 nM (specific to crystal-violet).
FIGS. 13A and 13B illustrate a representative experiment of screening performed on 128 synthesized peptides. In this experiment, WI-38 fibroblasts were used. These cells express endogenous WT p53 and were further infected with a virus expressing either mouse Noxa shRNA, as a nonspecific control or the R175H p53 mutant for stable overexpression of mutant p53. Both of these sub-lines (mNoxa or R175H p53) were seeded at 3000 cells per well and treated as described above. […]

Mut-p53 (R175H p53) = biological target: T1, Mut-p53 (R175H p53) (Homo sapiens, UniProt P04637, R175H); assay: Sandwich ELISA for p53 conformation (PAb1620/PAb240 reactivity); type: biochemical; conditions: extract of H1299 cells overexpressing R175H p53; peptide 50 ng/ml, 2 hours
T1 construct: a hot spot full length mutant p53 Mut-p53 R175H (R175H p53); expressed in transfected cells; host or cells: H1299 (p53-null) cells stably overexpressing R175H p53; cell extract
Method: To measure the conformational effect of the peptides on Mut-p53, a micro-titer plate was coated with either PAb240, PAb1620 or pAb421 (as a positive control and standard for total p53 protein, since the antibody used recognizes both WT and mutant conformations), overnight incubated, washed, blocked, and cell extracts (with or without peptides) were added for an additional 2 hours. After removal of extracts, plates were washed and incubated with the αp53-HRP conjugated Ab for the detection of p53 levels. A TMB (substrate of HRP) assay was performed and optical density was determined at 450 nm. WT p53 served as a positive control for reactivity with PAb1620, and Mut-p53 served as a negative control. The results are presented as the ratio of absorbance between the PAb1620 or PAb240 samples and the control […] sample. MCF7 and H1299-Mut-p53 (ts) A135V (TS) cells were used as positive controls for the WT p53 conformation (1620/240 ratio equals or exceeds 5:1).
96-well plates were coated using 3 different antibodies (1 type of antibody (Ab) in each well): PAb421 recognizes both conformations of p53 and binds to a C-terminus epitope; PAb240 recognizes mutant conformation of p53, binds to epitope within the core domain (amino acids 212-217) (Stephen, C. W. and D. P. Lane, Mutant conformation of p53. Precise epitope mapping using a filamentous phage epitope library. J. Mol. Biol., 1992. 225(3): p. 577-83) which is accessible to the Ab when the protein is partially denatured (for example, when the DBD is mutated); and PAb1620, which recognizes WT conformation of p53, binds to epitope with in the core domain (aa 156, 206-210), formed when folding is in WT conformation (Wang, P. L., F. Salt, and G. Winter, The ‘wild type’ conformation of p53: epitope mapping using hybrid proteins. Oncogene, 2001. 20(18): p. 2318-24).
Wells were incubated overnight (ON) with 100 μl Ab (5 μg/ml) in room temp (RT). The liquid was discarded, and the wells were washed 3 times with Phosphate buffered saline (PBS), 200 μl per each wash. Next, blocking with 200 μl of 5% bovine serum albumin (BSA) diluted in PBS in each well for 1.5 hours at room temperature (RT) was performed. Blocking buffer was discarded, followed by 3 washes in PBS as described above. Samples of mutant and WT p53 proteins (100 μl, 10 μg/ml), together with control peptides pCAP-710 (LPNPPER, SEQ ID NO:328) and pCAP-1220 ([…], SEQ ID NO:368) (5 μg/ml, Sigma Aldrich, or with test peptides 1-153 (5 μg/ml), were incubated for 1.5 hours together, and then added to the wells. Samples were rotated and incubated for 1 hour at RT. Samples were discarded, following 4 washes as described above, using Trisphosphate buffered saline (TPBS). Next, horseradish peroxidase (HRP) conjugated streptavidin p53 antibody (10 μg/ml HAF1355 (R&D)) was added to the wells and incubated at RT for 1 hour. After the plate was washed 3 times in TPBS, TMB substrate solution (50 μl each well, Thermo, (Cat. No. ES001-1L-K)) was added and incubated at 37° c. for 20 min. The reaction was stopped with 2M sulfuric acid (50 μl). The absorbance was measured at 450 nm with a spectrophotometer. Protein concentration was determined by dividing the absorbencies of each sample to the absorbance of Ab 421 samples.
The first screening strategy was based on ELISA. A version of sandwich ELISA was used to examine the effect of the lead test peptides on p53 conformation. To measure the conformational effect of the peptides on Mut-p53, a micro-titer plate was coated with PAb240, PAb1620 or pAb421 (as a positive control), and then the reactivity of p53 to these antibodies was examined. WT p53 served as a positive control for reactivity with PAb1620, and Mut-p53 served as a negative control. To examine the effect of a tested peptide it was added to a solution containing Mut-p53 and change in reactivity to either Ab was tested. […] Several ELISA experiments using different cell extracts were performed. […]

[2] = system: ES2 ovarian carcinoma cells (Mut-p53, position 241); assay: Annexin-V/PI apoptosis assay by flow cytometry; type: cell-based; conditions: 12 ug/ml
Method: FIGS. 17A, 17B, 17C and 17D illustrate representative experiments performed on ES2 ovarian carcinoma cells expressing Mut-p53 mutated at position 241 within the DBD. […] Cells were harvested and an apoptosis assay (FIGS. 17A and 17B) was performed using the Annexin-V staining kit (Roche, REF 11 988 549 001). Non-fixed cells were stained with both anti Annexin FITC conjugated antibody to detect apoptotic cells, and PI (propidium iodide) to stain dead cells, according to the manufacturer's instructions. Stained cells were then analyzed by flow cytometry. A total of 10,000 cells was counted for each sample and divided into four sub populations according to staining intensity; cells negative for both PI and Annexin (−PI, −Annexin) are termed live; cells negative for PI and positive for Annexin (−PI, +Annexin) are going through early stages of apoptosis; cells positive for PI and Annexin (+PI, +Annexin) are dead cells that underwent an apoptotic process; and cells positive for PI and negative for Annexin (+PI, −Annexin) are assumed as dead cells that died by a non-apoptotic process such as necrosis.
FIGS. 17A and 17B illustrate a representative experiments performed on ES2 ovarian carcinoma cells (FIGS. 17A-D) expressing Mut-p53 with a mutation at positions 241 within the DBD. […] Cells were harvested, and 60% of the cells were taken for Annexin-PI apoptosis assay and 40% for extraction of RNA, cDNA synthesis and real time PCR analysis. Apoptosis was assayed using the Annexin-V staining kit (Roche, REF 11 988 549 001). Non-fixed cells were stained with both anti Annexin FITC conjugated antibody to detect apoptotic cells, and PI (propidium-iodide) to stain dead cells permeable to the compound, according to the manufacturer's instructions. Stained cells were then analyzed by flow cytometry. A total of 10,000 cells was counted for each sample and divided into four subpopulations according to staining intensity: cells negative for both PI and Annexin (−PI, −Annexin) are termed live; cells negative for PI and positive for Annexin (−PI, +Annexin) are going through early stages of apoptosis; cells positive for PI and Annexin (+PI, +Annexin) are dead cells that underwent an apoptotic process; and cells positive for PI and negative for Annexin (+PI, −Annexin) are assumed to be dead cells that died a non-apoptotic death such as necrosis. […] Treatment with pCAPs 242 and 250 causes a rapid increase in apoptotic cells followed by cell death and after 5 hours of treatment 12% of cells are Annexin positive and about 7% are dead. After 16 and 24 hours of treatment with pCAP 250 the apoptotic population increases to about 27% and dead cells accumulate to 29% at 16h and 36% after 24h. […] CD95 and Btg-2 expression is elevated up to 6 fold over non-treated cells.

| Substance | reduction in cell numbers, R175H p53 expressing WI-38 cells [1] | reactivity of R175H Mut-p53 towards PAb1620 and PAb240 (conformational change) (Mut-p53 (R175H p53)) | apoptosis and cell death time course compared with pCAP 250 [2] | Annexin positive cells ([2]; after 5 hours of treatment) [%] | dead cells ([2]; after 5 hours of treatment) |
| --- | --- | --- | --- | --- | --- |
| ASWQALALYAAGW [pCAP-46] | significant reduction in cell numbers |  |  |  |  |
| LRCLLLLIGRVG [pCAP-24] |  | increased reactivity of R175H Mut-p53 towards PAb1620 and decreased reactivity towards PAb240 |  |  |  |
| SFILFIRRGRLG [pCAP-60] | significant reduction in cell numbers | increased reactivity of R175H Mut-p53 towards PAb1620 and decreased reactivity towards PAb240 |  |  |  |
| TLYLPHWHRH [pCAP-47] | significant reduction in cell numbers | increased reactivity of R175H Mut-p53 towards PAb1620 and decreased reactivity towards PAb240 |  |  |  |
| YPTQGHLR [pCAP-36] | significant reduction in cell numbers | increased reactivity of R175H Mut-p53 towards PAb1620 and decreased reactivity towards PAb240 |  |  |  |
| myr-RRLIVRILKLPNPPER (Myristoyl-RRLIVRILKLPNPPER) [pCAP-242] |  |  | attenuated and slower | 12 | about 7% |
